One assay deals with female gamete formation. The settings on record: ref Miguel-Blanco et al., 2017; cited from earlier work.
In assay [1] the test system is phosphoproteome of Dd2-B2 Pf schizonts. Description: Phosphoproteomics of Dd2-B2 schizonts exposed to 1200 nM MMV030084 for 3 h. The class given is cell-based, Plasmodium falciparum. The settings on record: 1,200 nM, vs untreated.
Description: Red blood cells were lysed by 0.1% saponin in washing buffer (20 mM β-glycerophosphate, 1 tablet of cOmplete protease inhibitor cocktail (Roche), and 1 tablet of PhosSTOP phosphatase inhibitor (Roche) per 10 ml PBS). Parasites were subsequently washed three times in washing buffer. Parasite pellets were stored at -80°C until all samples from two independently repeated exposure experiments were collected. Proteins were extracted from schizont pellets by sonication and lysis in Tris-EDTA buffer (10 mM Tris-HCl, 5 mM EDTA, 20 mM ß-glycerolphosphate; pH 7.4, 1% NP-40, 2% CHAPS) followed by reduction of disulfide bonds and alkylation. Samples were digested with trypsin at a ratio of 1:15 (w/w) trypsin and proteins concentrated using S-trap columns (ProtiFi) for 1 h at 47°C. For tandem mass tag (TMT) labelling, digested samples were incubated with TMTsixplex reagents (Thermo Scientific). All labeled samples were pooled together, loaded onto an anion-exchange column, and fractionated on an AKTA purifier (GE Healthcare). The fractions were concentrated and phosphopeptides were enriched using titanium dioxide (TiO2) and immobilized metal affinity chromatography (IMAC). […] We also analyzed the peptide sequences for patterns that conformed to the previously established PfPKG consensus motif K/RR/KxpS/pT and the PfPKA consensus motif K/RxxpS/pT ([Francis et al., 2010]).
The target of assay [2] is T1, transforming growth factor β receptor 2 (Homo sapiens, UniProt P37173).
T1 construct: human cell/tissue protein extract (a mixture of HEK-293, K-562, Hep G2 , and placental cells); endogenous in cells; host or cells: mixture of HEK-293, K-562, Hep G2 and placenta
Description: Chemoproteomics in human mixed tissue extracts. The class given is binding. The settings on record: read-out: Kdapp. As for the experimental part:
(§1) Human extracts were prepared as described ([Bantscheff et al., 2011]). Briefly, frozen cell pellets were homogenized in lysis buffer (50 mM Tris-HCl, 0.8% Igepal-CA630, 5% glycerol, 150 mM NaCl, 1.5 mM MgCl2, 25 mM sodium fluoride, 1 mM sodium vanadate, 1 mM DTT, pH 7.5). One cOmplete EDTA-free protease inhibitor tablet (Roche) was added per 25 ml. Samples were dispersed using a Dounce homogenizer, rotated for 30 min at 4°C, and centrifuged at 20,000g for 10 min at 4°C. Supernatants were then recentrifuged at 145,000g for 1 h at 4°C. Protein concentrations were determined using a Bradford assay (BioRad). Aliquots were snap frozen in liquid nitrogen and stored at −80°C.
(§2) Kinobeads were prepared by immobilizing Bis-(III) indolyl-maleimide, purvalanol B, staurosporine and CZC8004, and the analogs of PD173955, sunitinib and vandetanib on NHS-activated Sepharose 4 beads (Amersham) ([Bantscheff et al., 2007]). […] The chemoproteomic affinity-capturing experiments were performed as previously described ([Bantscheff et al., 2011]). Briefly, beads were washed and equilibrated in lysis buffer (50 mM Tris-HCl, pH 7.4, 0.4 % Igepal-CA630, 1.5 mM MgCl2, 5 % Glycerol, 150 mM NaCl, 25 mM NaF, 1 mM Na3VO4, 1 mM DTT, and one cOmplete EDTA-free protease inhibitor tablet (Roche) per 25 mL). The beads were incubated at 4°C for 1 h with either 0.1 ml (0.3 mg) Pf blood stage extract or 0.5 mL (2.5 mg) human cell/tissue protein extract (a mixture of HEK-293, K-562, Hep G2 , and placental cells), which was pre-incubated with compound or DMSO (vehicle control). 10 samples were measured in parallel (TMT 10-plex ([Werner et al., 2014])) to generate values for the affinity of the beads to the bound proteins (“depletion” values, 4 samples) and to generate IC50 values (6 samples) in a single experiment. Apparent dissociation constants were determined after accounting for protein depletion by the beads ([Bantscheff et al., 2011]). Beads were transferred to Filter plates (Durapore PVDF membrane, Merck Millipore), washed with lysis buffer, and eluted with SDS sample buffer.
(§3) Proteins were digested according to a modified single pot solid-phase sample preparation (SP3) protocol ([Hughes et al., 2014]). Peptides were labeled with isobaric mass tags (Thermo Fisher Scientific, Waltham, MA) using 10-plex TMT reagents, enabling relative quantification of 10 conditions in a single experiment ([Werner et al., 2014]). The labeling reactions and LC-MS/MS measurements using Q Exactive Orbitrap or Orbitrap Fusion Lumos mass spectrometers (Thermo Fisher Scientific) were performed as described elsewhere ([Sridharan et al., 2019]). Mascot 2.4 (Matrix Science, Boston, MA) was used for protein identification by using a 10 parts per million mass tolerance for peptide precursors and 20 mD (HCD) mass tolerance for fragment ions. To create the fasta file for mascot searching, all proteins corresponding to the taxonomy ‘Plasmodium falciparum (isolate 3D7)’ were downloaded from Uniprot (release 20170621) and supplemented with common contaminant protein sequences of bovine serum albumin, porcine trypsin and mouse, rat, sheep and dog keratins. To assess the false discovery rate (FDR), “decoy” proteins (reverse of all protein sequences) were created and added to the database, resulting in a database containing a total of 14266 protein sequences, with 50% forward and 50% reverse. For peptide and protein identification of human proteins see ([Sridharan et al., 2019]). Unless stated otherwise, we accepted protein identifications as follows: (i) For single-spectrum to sequence assignments, we required this assignment to be the best match and a minimum Mascot score of 31 and a 10× difference of this assignment over the next best assignment. Based on these criteria, the decoy search results indicated <1% false discovery rate (FDR). (ii) For multiple spectrum to sequence assignments and using the same parameters, the decoy search results indicated <0.1% FDR. […]

The target of another assay is T2, protein kinase N3 (Homo sapiens, UniProt Q6P5Z2).
T2 construct: human cell/tissue protein extract (a mixture of HEK-293, K-562, Hep G2 , and placental cells); endogenous in cells; host or cells: mixture of HEK-293, K-562, Hep G2 and placenta
The experiment in a line: Chemoproteomics in human mixed tissue extracts. The settings on record: read-out: Kdapp. The class given is binding. As for the experimental part: as §1, §2, §3

The target in assay [3] is T3, testis-associated actin remodeling kinase 2 (Homo sapiens, UniProt Q96S53).
T3 construct: human cell/tissue protein extract (a mixture of HEK-293, K-562, Hep G2 , and placental cells); endogenous in cells; host or cells: mixture of HEK-293, K-562, Hep G2 and placenta
Description: Chemoproteomics in human mixed tissue extracts. The settings on record: read-out: Kdapp. The class given is binding. As for the experimental part: as §1, §2, §3

For the next assay, the target named is T4, casein kinase 1δ (Homo sapiens, UniProt P48730).
T4 construct: human cell/tissue protein extract (a mixture of HEK-293, K-562, Hep G2 , and placental cells); endogenous in cells; host or cells: mixture of HEK-293, K-562, Hep G2 and placenta
Description: Chemoproteomics in human mixed tissue extracts. The format is binding. Conditions: read-out: Kdapp. As for the experimental part: as §1, §2, §3

Assay [4] concerns the target T5, transforming growth factor β receptor 1 (Homo sapiens, UniProt P36897).
T5 construct: human cell/tissue protein extract (a mixture of HEK-293, K-562, Hep G2 , and placental cells); endogenous in cells; host or cells: mixture of HEK-293, K-562, Hep G2 and placenta
Description: Chemoproteomics in human mixed tissue extracts. The class given is binding. Conditions: read-out: Kdapp. As for the experimental part: as §1, §2, §3

Assay [5] has as its target T6, receptor interacting serine/threonine kinase 2 (Homo sapiens, UniProt O43353).
T6 construct: human cell/tissue protein extract (a mixture of HEK-293, K-562, Hep G2 , and placental cells); endogenous in cells; host or cells: mixture of HEK-293, K-562, Hep G2 and placenta
The experiment in a line: Chemoproteomics in human mixed tissue extracts. The class given is binding. Conditions: read-out: Kdapp. As for the experimental part: as §1, §2, §3

In the next assay the target is T7, nemo-like kinase (Homo sapiens, UniProt Q9UBE8).
T7 construct: human cell/tissue protein extract (a mixture of HEK-293, K-562, Hep G2 , and placental cells); endogenous in cells; host or cells: mixture of HEK-293, K-562, Hep G2 and placenta
The experiment in a line: Chemoproteomics in human mixed tissue extracts. The format is binding. The settings on record: read-out: Kdapp. As for the experimental part: as §1, §2, §3

T5 sequence (P36897 34-503): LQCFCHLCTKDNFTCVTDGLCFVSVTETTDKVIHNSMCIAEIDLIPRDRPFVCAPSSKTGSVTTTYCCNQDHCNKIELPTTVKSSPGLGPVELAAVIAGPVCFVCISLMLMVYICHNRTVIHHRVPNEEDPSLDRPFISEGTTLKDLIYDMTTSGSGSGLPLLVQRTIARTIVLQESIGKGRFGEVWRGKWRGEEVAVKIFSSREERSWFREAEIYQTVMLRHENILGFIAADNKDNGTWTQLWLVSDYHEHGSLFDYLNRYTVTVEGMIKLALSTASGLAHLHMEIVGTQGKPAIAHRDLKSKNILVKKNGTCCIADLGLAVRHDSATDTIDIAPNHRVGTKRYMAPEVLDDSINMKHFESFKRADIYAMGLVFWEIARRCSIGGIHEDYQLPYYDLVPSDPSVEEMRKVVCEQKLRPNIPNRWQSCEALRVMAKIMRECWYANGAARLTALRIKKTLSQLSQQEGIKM
T7 sequence (Q9UBE8 whole entry): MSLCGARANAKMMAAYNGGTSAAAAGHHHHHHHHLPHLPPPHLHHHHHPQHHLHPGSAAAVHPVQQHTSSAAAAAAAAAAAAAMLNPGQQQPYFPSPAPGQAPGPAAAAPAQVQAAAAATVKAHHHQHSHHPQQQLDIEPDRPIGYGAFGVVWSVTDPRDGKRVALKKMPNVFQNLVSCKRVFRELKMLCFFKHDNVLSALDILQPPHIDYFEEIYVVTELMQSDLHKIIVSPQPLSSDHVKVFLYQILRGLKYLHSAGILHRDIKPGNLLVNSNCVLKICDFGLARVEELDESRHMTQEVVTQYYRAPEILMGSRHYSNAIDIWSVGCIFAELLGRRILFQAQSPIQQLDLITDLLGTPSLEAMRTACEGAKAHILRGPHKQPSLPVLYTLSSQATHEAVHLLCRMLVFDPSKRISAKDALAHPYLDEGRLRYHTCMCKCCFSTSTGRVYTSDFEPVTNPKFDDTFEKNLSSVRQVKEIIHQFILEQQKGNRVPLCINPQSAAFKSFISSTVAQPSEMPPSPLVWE
T2 sequence (Q6P5Z2 whole entry): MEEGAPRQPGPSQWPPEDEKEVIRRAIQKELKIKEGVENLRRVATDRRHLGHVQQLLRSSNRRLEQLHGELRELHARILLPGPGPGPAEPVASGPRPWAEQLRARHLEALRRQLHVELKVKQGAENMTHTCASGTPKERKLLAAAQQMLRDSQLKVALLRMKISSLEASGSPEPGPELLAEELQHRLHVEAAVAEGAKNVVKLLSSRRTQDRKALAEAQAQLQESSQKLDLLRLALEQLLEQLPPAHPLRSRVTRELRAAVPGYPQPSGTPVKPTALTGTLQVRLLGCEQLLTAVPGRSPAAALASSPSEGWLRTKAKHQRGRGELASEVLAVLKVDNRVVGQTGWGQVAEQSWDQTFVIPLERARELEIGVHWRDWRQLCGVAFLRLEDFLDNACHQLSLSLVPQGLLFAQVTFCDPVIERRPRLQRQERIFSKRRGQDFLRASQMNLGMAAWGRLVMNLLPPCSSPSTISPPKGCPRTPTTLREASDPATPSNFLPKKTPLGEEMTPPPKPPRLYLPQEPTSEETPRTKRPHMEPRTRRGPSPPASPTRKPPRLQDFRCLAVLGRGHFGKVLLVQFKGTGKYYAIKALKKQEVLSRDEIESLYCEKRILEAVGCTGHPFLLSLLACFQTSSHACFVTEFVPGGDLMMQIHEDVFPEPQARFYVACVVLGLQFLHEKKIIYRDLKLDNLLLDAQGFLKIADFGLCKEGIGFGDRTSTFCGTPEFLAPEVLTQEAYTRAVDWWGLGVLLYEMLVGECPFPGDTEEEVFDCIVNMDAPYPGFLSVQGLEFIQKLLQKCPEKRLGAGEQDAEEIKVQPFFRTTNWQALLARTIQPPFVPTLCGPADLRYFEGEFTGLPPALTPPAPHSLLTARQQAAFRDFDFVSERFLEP
T6 sequence (O43353 whole entry): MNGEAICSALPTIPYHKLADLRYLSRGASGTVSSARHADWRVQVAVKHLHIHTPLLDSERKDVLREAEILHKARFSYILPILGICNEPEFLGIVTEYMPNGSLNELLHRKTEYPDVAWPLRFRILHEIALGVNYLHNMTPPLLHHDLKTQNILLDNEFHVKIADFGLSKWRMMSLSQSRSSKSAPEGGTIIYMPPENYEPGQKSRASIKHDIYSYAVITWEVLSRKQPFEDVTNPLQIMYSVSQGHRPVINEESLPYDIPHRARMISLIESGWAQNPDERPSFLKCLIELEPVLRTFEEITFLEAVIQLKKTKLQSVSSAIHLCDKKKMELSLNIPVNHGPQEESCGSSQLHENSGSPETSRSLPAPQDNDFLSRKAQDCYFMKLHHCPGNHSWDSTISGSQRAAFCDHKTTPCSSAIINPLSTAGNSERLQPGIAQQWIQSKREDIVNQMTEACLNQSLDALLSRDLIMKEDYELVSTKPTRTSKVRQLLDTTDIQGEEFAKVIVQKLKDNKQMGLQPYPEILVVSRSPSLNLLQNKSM
T4 sequence (P48730 whole entry): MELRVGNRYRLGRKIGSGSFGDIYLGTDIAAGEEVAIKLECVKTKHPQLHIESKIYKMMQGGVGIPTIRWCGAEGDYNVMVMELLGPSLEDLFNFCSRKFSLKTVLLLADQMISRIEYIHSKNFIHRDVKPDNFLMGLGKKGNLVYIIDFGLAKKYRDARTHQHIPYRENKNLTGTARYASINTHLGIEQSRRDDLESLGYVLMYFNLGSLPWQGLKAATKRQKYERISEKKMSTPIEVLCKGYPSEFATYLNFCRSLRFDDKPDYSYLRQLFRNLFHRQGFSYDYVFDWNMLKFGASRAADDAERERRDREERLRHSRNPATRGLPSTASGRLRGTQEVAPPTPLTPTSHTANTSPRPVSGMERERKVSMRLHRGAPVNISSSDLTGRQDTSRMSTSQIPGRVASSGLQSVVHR
T1 sequence (P37173 23-567): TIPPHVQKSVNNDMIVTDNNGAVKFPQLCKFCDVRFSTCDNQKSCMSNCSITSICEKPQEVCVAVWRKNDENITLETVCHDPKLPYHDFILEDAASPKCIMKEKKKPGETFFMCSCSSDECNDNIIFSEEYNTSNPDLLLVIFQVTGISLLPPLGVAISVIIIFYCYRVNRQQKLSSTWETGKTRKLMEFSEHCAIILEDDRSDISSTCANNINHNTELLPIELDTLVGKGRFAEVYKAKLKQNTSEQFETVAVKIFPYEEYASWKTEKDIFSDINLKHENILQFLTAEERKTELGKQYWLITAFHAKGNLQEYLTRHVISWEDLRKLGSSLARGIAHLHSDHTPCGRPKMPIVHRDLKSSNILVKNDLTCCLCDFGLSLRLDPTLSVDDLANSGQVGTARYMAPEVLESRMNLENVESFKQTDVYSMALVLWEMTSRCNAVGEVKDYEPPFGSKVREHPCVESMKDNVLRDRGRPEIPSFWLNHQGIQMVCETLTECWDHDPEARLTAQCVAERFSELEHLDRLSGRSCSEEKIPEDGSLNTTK
T3 sequence (Q96S53 whole entry): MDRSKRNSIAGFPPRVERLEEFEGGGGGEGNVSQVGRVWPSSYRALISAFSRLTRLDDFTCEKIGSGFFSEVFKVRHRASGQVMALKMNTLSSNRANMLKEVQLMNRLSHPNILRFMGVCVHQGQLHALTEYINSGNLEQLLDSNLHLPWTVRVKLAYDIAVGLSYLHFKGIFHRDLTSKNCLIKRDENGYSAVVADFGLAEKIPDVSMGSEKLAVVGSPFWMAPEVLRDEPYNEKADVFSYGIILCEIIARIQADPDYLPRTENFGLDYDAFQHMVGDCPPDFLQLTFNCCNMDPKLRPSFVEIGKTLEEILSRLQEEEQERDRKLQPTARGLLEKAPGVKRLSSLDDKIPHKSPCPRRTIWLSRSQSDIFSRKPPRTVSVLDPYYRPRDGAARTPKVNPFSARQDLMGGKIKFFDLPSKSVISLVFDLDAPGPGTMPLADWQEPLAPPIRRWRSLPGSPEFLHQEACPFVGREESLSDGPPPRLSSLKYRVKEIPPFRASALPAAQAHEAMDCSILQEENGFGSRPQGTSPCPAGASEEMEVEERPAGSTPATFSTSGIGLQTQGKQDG

Take `CC(C)(CN)c1nc(-c2ccc(Cl)c(O)c2)c(-c2ccncc2)[nH]1` [MMV030084]: in the assay with female gamete formation, the “Inhibition of female gamete formation” value is on record as “inhibitors of female gamete formation”. In [1], the “Number of proteins with increased phosphorylation levels” value came to 15. In assay [1], the “Number of proteins with phosphorylation status reduced by more than 35%” value is 16. The Kd in assay [2] came out at 35 nM; on protein kinase N3 it was 8.5 nM; in assay [3] it was 25 nM; on casein kinase 1δ, 95 nM; in assay [4] it was 20 nM; in assay [5] it was 4.5 nM. Also, the Kd at nemo-like kinase is 20 nM.

Source of the values: publication PMC7369637, “Inhibition of Resistance-Refractory P. falciparum Kinase PKG Delivers Prophylactic, Blood Stage, and Transmission-Blocking Antiplasmodial Activity” (Cell Chemical Biology, 2020).
